According to patent US8329705B2, “Substituted triazolo-pyrazine compounds” (ArQule, Inc., priority 2009, dated 2012):

Target: T1, FGFR2 (N549H) (Homo sapiens, UniProt P21802, N549H)
T1 construct: purchased Millipore 14-742
Assay: FGFR2 kinase activity assay (fluorescent ELISA)
Format: biochemical
Settings: 30 μM compound
Procedure: A fluorescent ELISA assay was developed to identify and characterize inhibitors of FGFR2 kinase. This heterogeneous assay utilized a biotinylated peptide with a tyrosine motif as a substrate and an anti-phospho-tyrosine antibody to measure phosphorylation of the substrate. The reaction was initiated by adding a test compound, 37 uM Pyk2 substrate (Midwest Biotech, cat. #MBT2383), 12.5 uM ATP (Roche, cat. #11 140 965 001), and 0.5 uM FGFR2 enzyme (Millipore, cat. #14-742) sequentially to a non-binding polypropylene V-well plate. All reagents were in assay buffer consisting of: 50 mM Tris-HCL, 0.02 mg/mL BSA, 10 mM MgCl2, 0.1 mM Na3VO4, 1 mM EGTA, […], 0.01% NP-40, 2 mM DTT, 10% Glycerol. The reaction was incubated for 60 minutes. As the reaction proceeded, FGFR2 phosphorylated tyrosines in the peptide. The reaction mixture was then moved to a blocked streptavidin coated Nunc Maxisorb plate (coated with 100 ng streptavidin from Pierce (cat #15-124) per well) allowing for the capture of the biotinylated peptide. Peptide was captured for 30 minutes at room temperature, the phosphorylation of peptide continues during this phase. The reaction was stopped by washing the Streptavidin plate 6 times with TBST. Phosphorylated peptide was detected by adding anti-phospho tyrosine antibody (purchased from Cell Signaling, cat. #9411, diluted 1:3000), unbound antibody was removed by washing 6 times with TBST. Secondary detection was performed using Alkaline Phosphatase tagged goat anti-mouse antibody (purchased from Pierce, cat. #31320, diluted 1:4000) for one hour. Unbound secondary antibody was removed by washing 6 times with TBST.
The fluorescent readout was initiated by the addition of Promega Attophos substrate (purchased from Promega; Kit catalog number: S1000, dilution=6 mg/10 mL), which when dephosphorylated by Alkaline phosphatase emitted a fluorescent signal of […] when excited by a signal […]. This reading was done on the Perkin Elmer Envision system. […] The signal was directly proportional to the activity of FGFR2 and compound inhibition of FGFR2 was monitored by a decrease in signal.

T1 sequence (P21802 22-821 N549H): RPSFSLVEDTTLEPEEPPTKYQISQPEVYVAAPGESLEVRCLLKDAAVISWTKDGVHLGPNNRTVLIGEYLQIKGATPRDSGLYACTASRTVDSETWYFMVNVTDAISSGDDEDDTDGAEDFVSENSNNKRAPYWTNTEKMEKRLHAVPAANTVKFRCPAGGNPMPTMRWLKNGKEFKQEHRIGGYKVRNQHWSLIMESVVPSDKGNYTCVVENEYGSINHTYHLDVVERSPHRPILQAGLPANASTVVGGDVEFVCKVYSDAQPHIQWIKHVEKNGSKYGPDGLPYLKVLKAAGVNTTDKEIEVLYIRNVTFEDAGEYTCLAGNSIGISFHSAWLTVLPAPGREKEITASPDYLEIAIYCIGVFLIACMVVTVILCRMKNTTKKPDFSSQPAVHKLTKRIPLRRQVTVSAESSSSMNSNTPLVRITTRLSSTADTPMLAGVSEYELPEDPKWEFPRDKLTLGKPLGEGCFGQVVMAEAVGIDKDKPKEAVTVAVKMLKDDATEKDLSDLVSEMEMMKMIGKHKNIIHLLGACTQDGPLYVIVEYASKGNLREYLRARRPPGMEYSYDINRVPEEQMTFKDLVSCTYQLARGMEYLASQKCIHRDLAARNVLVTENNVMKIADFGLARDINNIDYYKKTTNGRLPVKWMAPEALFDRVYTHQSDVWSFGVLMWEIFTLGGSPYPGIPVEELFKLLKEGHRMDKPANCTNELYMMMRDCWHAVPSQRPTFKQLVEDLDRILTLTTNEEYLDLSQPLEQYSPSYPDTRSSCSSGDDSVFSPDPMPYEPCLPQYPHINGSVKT

Compound	inhibition at 30 µM
COc1ccc(Cl)cc1Nc1nccn2c(NC(=O)OC(C)C)nnc12 [Compound 7, isopropyl {8-[(5-chloro-2-methoxyphenyl)amino][1,2,4]triazolo[4,3-a]pyrazin-3-yl}carbamate]	55.5%
CC(C)OC(=O)Nc1nnc2c(Nc3ccccc3Cl)nccn12 [Compound 13, isopropyl {8-[(2-chlorophenyl)amino][1,2,4]triazolo[4,3-a]pyrazin-3-yl}carbamate]	50.5%
Cc1ccccc1Nc1nccn2c(NC(=O)OC(C)C)nnc12 [Compound 14, isopropyl {8-[(2-methylphenyl)amino][1,2,4]triazolo[4,3-a]pyrazin-3-yl}carbamate]	82%
CC(C)OC(=O)Nc1nnc2c(NCc3ccc(C(F)(F)F)cc3)nccn12 [Compound 17, isopropyl (8-{[4-(trifluoromethyl)benzyl]amino}[1,2,4]triazolo[4,3-a]pyrazin-3-yl)carbamate]	68.8%
Cc1cccc(CNc2nccn3c(NC(=O)OC(C)C)nnc23)c1 [Compound 19, isopropyl {8-[(3-methylbenzyl)amino][1,2,4]triazolo[4,3-a]pyrazin-3-yl}carbamate]	55.2%
COc1ccc(C)cc1Nc1nccn2c(NC(=O)OC(C)C)nnc12 [Compound 23, isopropyl {8-[(2-methoxy-5-methylphenyl)amino][1,2,4]triazolo[4,3-a]pyrazin-3-yl}carbamate]	50.9%
COc1cc(CCNc2nccn3c(NC(=O)OC(C)C)nnc23)cc(OC)c1 [Compound 31, isopropyl (8-{[2-(3,5-dimethoxyphenyl)ethyl]amino}[1,2,4]triazolo[4,3-a]pyrazin-3-yl)carbamate]	96.5%
CC(C)OC(=O)Nc1nnc2c(Nc3ccc4c(c3)CCC4)nccn12 [Compound 34, isopropyl [8-(2,3-dihydro-1H-inden-5-ylamino)[1,2,4]triazolo[4,3-a]pyrazin-3-yl]carbamate]	68.7%
COc1ccc(Nc2nccn3c(NC(=O)OC(C)C)nnc23)c(OC)c1 [Compound 35, isopropyl {8-[(2,4-dimethoxyphenyl)amino][1,2,4]triazolo[4,3-a]pyrazin-3-yl}carbamate]	57%
CC(C)OC(=O)Nc1nnc2c(NCCc3ccc(Oc4ccccc4)cc3)nccn12 [Compound 36, isopropyl (8-{[2-(4-phenoxyphenyl)ethyl]amino}[1,2,4]triazolo[4,3-a]pyrazin-3-yl)carbamate]	51.4%
COc1ccc(OC)c(Nc2nccn3c(NC(=O)OC(C)C)nnc23)c1 [Compound 46, isopropyl {8-[(2,5-dimethoxyphenyl)amino][1,2,4]triazolo[4,3-a]pyrazin-3-yl}carbamate]	84.6%
CC(C)OC(=O)Nc1nnc2c(NCc3ccccc3C(F)(F)F)nccn12 [Compound 48, isopropyl (8-{[2-(trifluoromethyl)benzyl]amino}[1,2,4]triazolo[4,3-a]pyrazin-3-yl)carbamate]	87%
CC(C)OC(=O)Nc1nnc2c(Nc3ccc(C(C)(C)C)cc3)nccn12 [Compound 50, isopropyl {8-[(4-tert-butylphenyl)amino][1,2,4]triazolo[4,3-a]pyrazin-3-yl}carbamate]	63.6%
CC(C)OC(=O)Nc1nnc2c(Nc3nc4ccccc4[nH]3)nccn12 [Compound 56, isopropyl [8-(1H-benzimidazol-2-ylamino)[1,2,4]triazolo[4,3-a]pyrazin-3-yl]carbamate]	64.7%
CC(C)OC(=O)Nc1nnc2c(NCc3cc(C(F)(F)F)cc(C(F)(F)F)c3)nccn12 [Compound 66, isopropyl (8-{[3,5-bis(trifluoromethyl)benzyl]amino}[1,2,4]triazolo[4,3-a]pyrazin-3-yl)carbamate]	58.4%
Cc1ccc(N(C)c2nccn3c(NC(=O)OC(C)C)nnc23)cc1 [Compound 69, isopropyl {8-[methyl(4-methylphenyl)amino][1,2,4]triazolo[4,3-a]pyrazin-3-yl}carbamate]	52.8%
CC(C)OC(=O)Nc1nnc2c(NCc3ccccc3F)nccn12 [Compound 84, isopropyl {8-[(2-fluorobenzyl)amino][1,2,4]triazolo[4,3-a]pyrazin-3-yl}carbamate]	84%
CC(C)OC(=O)Nc1nnc2c(N(C)c3ccc(Cl)cc3)nccn12 [Compound 87, isopropyl {8-[(4-chlorophenyl)(methyl)amino][1,2,4]triazolo[4,3-a]pyrazin-3-yl}carbamate]	57.7%
Nc1nnc2c(Nc3cccc(F)c3)nccn12 [Compound 99, N^8-(3-fluorophenyl)[1,2,4]triazolo[4,3-a]pyrazine-3,8-diamine]	60.7%

Now from value to compound:

inhibition at 30 µM	Compound
65.3%	CC(C)OC(=O)Nc1nnc2c(NCc3cccc(Cl)c3)nccn12 [Compound 24, isopropyl {8-[(3-chlorobenzyl)amino][1,2,4]triazolo[4,3-a]pyrazin-3-yl}carbamate]
51.6%	CC(C)OC(=O)Nc1nnc2c(NCCc3ccc(F)cc3)nccn12 [Compound 28, isopropyl (8-{[2-(4-fluorophenyl)ethyl]amino}[1,2,4]triazolo[4,3-a]pyrazin-3-yl)carbamate]
56.3%	CC(C)OC(=O)Nc1nnc2c(N(C)Cc3ccccc3)nccn12 [Compound 30, isopropyl {8-[benzyl(methyl)amino][1,2,4]triazolo[4,3-a]pyrazin-3-yl}carbamate]
62.5%	COc1ccccc1N(C)c1nccn2c(NC(=O)OC(C)C)nnc12 [Compound 41, isopropyl {8-[(2-methoxyphenyl)(methyl)amino][1,2,4]triazolo[4,3-a]pyrazin-3-yl}carbamate]
58.7%	Cc1cccc(CCNc2nccn3c(NC(=O)OC(C)C)nnc23)c1 [Compound 42, isopropyl (8-{[2-(3-methylphenyl)ethyl]amino}[1,2,4]triazolo[4,3-a]pyrazin-3-yl)carbamate]
100%	CC(C)OC(=O)Nc1nnc2c(NCc3ccc(-c4ccccc4)cc3)nccn12 [Compound 61, isopropyl {8-[(biphenyl-4-ylmethyl)amino][1,2,4]triazolo[4,3-a]pyrazin-3-yl}carbamate]
119%	CC(C)OC(=O)Nc1nnc2c(Nc3cccc(Cl)c3)nccn12 [Compound 67, isopropyl {8-[(3-chlorophenyl)amino][1,2,4]triazolo[4,3-a]pyrazin-3-yl}carbamate]
51%	CC(C)OC(=O)Nc1nnc2c(NCc3ccccc3Br)nccn12 [Compound 80, isopropyl {8-[(2-bromobenzyl)amino][1,2,4]triazolo[4,3-a]pyrazin-3-yl}carbamate]
50.6%	Cc1cccc2c(CCNc3nccn4c(NC(=O)OC(C)C)nnc34)c[nH]c12 [Compound 85, isopropyl (8-{[2-(7-methyl-1H-indol-3-yl)ethyl]amino}[1,2,4]triazolo[4,3-a]pyrazin-3-yl)carbamate]
59.2%	Nc1nnc2c(NCc3ccccc3Br)nccn12 [Compound 92, N^8-(2-bromobenzyl)[1,2,4]triazolo[4,3-a]pyrazine-3,8-diamine]
66.5%	Nc1nnc2c(NCc3ccc(C(F)(F)F)cc3)nccn12 [Compound 100, N^8-[4-(trifluoromethyl)benzyl][1,2,4]triazolo[4,3-a]pyrazine-3,8-diamine]
